Consider five compounds from patent US12552834B2, “Selective MENA binding peptides” (MASSACHUSETTS INSTITUTE OF TECHNOLOGY, priority 2021, dated 2026).

“Also recorded” adds a separate entry of the source. Where no end group is shown, it is not given here.

In assay [1] the target is T1, ENAH EVH1 domain (Homo sapiens, UniProt Q8N8S7).
T1 construct: places a 6×-His and TEV cleavage tag N-terminal to the EVH1 domain; 6×-His + TEV cleavage site (N, cleaved yes); made in house; host or cells: E. coli Rosetta2(DE3)
Put plainly: Biolayer interferometry (BLI), SUMO-peptide fusions binding monomeric ENAH EVH1 domain WT. The protocol:
All BLI experiments were performed with 2 replicates on an Octet Red96 instrument (ForteBio). […] The loaded tips were immersed in a solution of ENAH EVH1 domain at a relevant dilution series in BLI buffer at an orbital shake speed of 1000 rpm and run until the binding signal plateaued. ENAH-bound tips were subsequently placed into BLI buffer only for dissociation and run until the binding signal plateaued. KD values were obtained through steady state analysis. […] The association phases were then fit to a one-phase binding model in Prism and the equilibrium steady-state binding signal values from that fit were plotted against ENAH concentration and fit to a single-site specific binding model in Prism to obtain dissociation constants. Errors reported are the standard deviation of two replicates.
Monomeric ENAH, EVL, or VASP EVH1 domains for use in BLI and ITC experiments, or ENAH EVH1-peptide fusions for crystallography was cloned into a pMCSG7 vector (gift from Frank Gertler, MIT), which places a 6×-His and TEV cleavage tag N-terminal to the EVH1 domain. These constructs were transformed into Rosetta2(DE3) cells and grown in 2×YT media supplemented with 100 μg/mL ampicillin. Cells were grown while shaking at 37° C. to an O.D. 600 of 0.5-0.7, and then cooled on ice for at least 20 minutes. They were then induced with 0.5 mM IPTG and grown while shaking at 18° C. overnight. Induced cultures were resuspended in 25 mL of wash buffer (20 mM Hepes pH 7.6, 500 mM NaCl, 20 mM imidazole) and frozen at −80° C. overnight. The next day, cultures were sonicated, spun down, and applied to Ni-NTA acid agarose resin equilibrated with wash buffer, and washed as described above. Samples were eluted in 10 mL elution buffer (20 mM Hepes pH 7.6, 500 mM NaCl, […]). TEV protease was added to the elution at a ratio of 1 mg TEV:50 mg tagged protein along with 1 mM DTT. This mixture was dialyzed against TEV cleavage buffer (50 mM Hepes pH 8.0, 300 mM NaCl, 5 mM DTT, 1 mM EDTA) at 4° C. overnight and then applied over Ni-NTA acid agarose resin equilibrated with wash buffer. The column was washed with 2×8 mL of wash buffer, and the resulting flow-through and washes were pooled, concentrated, and applied to an S75 26/60 column equilibrated in gel filtration buffer (20 mM Hepes pH 7.6, 150 mM NaCl, 1 mM DTT, 1% glycerol). Purity was verified by SDS-PAGE and combined fractions were concentrated and flash frozen at −80° C.
Rosetta2(DE3) cells (Novagen) were transformed with pDW363 vector encoding 6×-His-SUMO-peptide fusions and grown in 20 mL of LB+100 μg/mL Ampicillin+0.050 mM D-(+)-Biotin dissolved in DMSO for in vivo biotinylation. Cells were grown to an OD of 0.5-0.7 with 1 mM IPTG and induced for 4-6 hours at 37° C. Pellets were spun down and frozen and −80° C. for at least 2 hours. These pellets were then thawed and resuspended in B-PER reagent (ThermoFisher) at 4 mL/gram of pellet with 0.2 mM PMSF. This suspension was shaken at 25° C. for 10-15 minutes, and then spun down at 15,000 g for 10 minutes. The supernatant was applied to 250 μL of Ni-NTA acid agarose resin equilibrated in 20 mM Tris pH 8.0, 500 mM NaCl, 20 mM Imidazole (Buffer A), and then washed 3 times with 1 mL of this buffer. Peptides were eluted in 1.8 mL of 20 mM Tris pH 8.0, 500 mM NaCl, 300 mM imidazole to use in BLI assays.

Assay [2] deals with T1, ENAH EVH1 domain. Put plainly: Isothermal titration calorimetry (ITC), SUMO-peptide titrated into ENAH EVH1 domain. Format: binding. To be noted: 25° C. The procedure: ITC experiments were performed with two replicates using a VP-ITC microcalorimeter (MicroCal LLC). To prepare samples for ITC, 2.5 mL of 100 μM ENAH EVH1 domain and 1 mL of 800 μM-1.2 mM of SUMO-peptide fusions were dialyzed against 2 μL of ITC Buffer (20 mM Hepes pH 7.6, 150 mM NaCl, 1 mM TCEP) at 4° C. overnight. The concentrations of proteins were remeasured after dialysis on the day of experiment. SUMO-peptide was titrated into ENAH EVH1 domain at 25° C. Data analysis and curve fitting were performed with the Origin 7.0 software (OriginLab). Errors reported as the standard deviation of two replicates.
SUMO-peptide fusions were cloned into a pDW363 vector that appends a BAP and 6×-His tag to the N-terminus of the protein and transformed into Rosetta2(DE3) cells. For ITC experiments, these cells were expressed in TB supplemented with 100 μg/mL ampicillin, grown to an O.D. 600 of 0.5-0.7, and induced with 1 mM IPTG. Induced cultures were purified as described above for the pMCGS7 constructs, with the exception of the TEV cleavage step. Instead, after elution with elution buffer, the sample was directly applied to the S75 26/60 column equilibrated in gel filtration buffer. Fractions were pooled, concentrated, and flash frozen at −80° C.
(In general: Isothermal titration calorimetry measures the heat released or taken up as one component is titrated into another.)

T1 sequence (Q8N8S7 with tags, fused parts or gaps): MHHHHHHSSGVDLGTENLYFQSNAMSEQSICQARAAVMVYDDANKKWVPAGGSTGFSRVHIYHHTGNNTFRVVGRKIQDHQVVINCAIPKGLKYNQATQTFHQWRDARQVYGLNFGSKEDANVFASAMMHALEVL

Compound “GSTQDVQSSPHNQFTFRPLPPPPPPPHACTCARKPP [TENM1]” had a Kd in the assay with ENAH EVH1 domain [1] (BLI, ENAH EVH1 domain) of over 60 µM.
In turn, `CC[C@H](C)[C@H](NC(=O)[C@H](CO)NC(=O)[C@@H]1CCCN1C(=O)[C@H](CC(C)C)NC(=O)[C@H](C)NC(=O)[C@H](CO)NC(=O)[C@H](CO)NC(=O)[C@H](CC(=O)O)NC(=O)[C@H](CC(=O)O)NC(=O)[C@H](CC(C)C)NC(=O)[C@@H]1CCCN1C(=O)[C@@H]1CCCN1C(=O)[C@@H]1CCCN1C(=O)[C@@H]1CCCN1C(=O)[C@@H]1CCCN1C(=O)[C@@H]1CCCN1C(=O)[C@H](CC(C)C)NC(=O)[C@H](Cc1ccccc1)NC(=O)[C@H](CC(=O)O)NC(=O)CNC(=O)[C@H](CCC(=O)O)NC(=O)CNC(=O)CNC(=O)[C@@H]1CCCN1C(=O)[C@H](CCC(N)=O)NC(=O)[C@@H](N)CCCCN)C(=O)N[C@@H](CO)C(=O)NCC(=O)N[C@@H](CC(N)=O)C(=O)N[C@@H](Cc1ccccc1)C(=O)N1CCC[C@H]1C(=O)N1CCC[C@H]1C(=O)N1CCC[C@H]1C(=O)N1CCC[C@H]1C(=O)N1CCC[C@H]1C(=O)N[C@@H](CC(C)C)C(=O)O` [LPP] yielded a reduction in affinity at ENAH EVH1 domain [1] (sequence between the two motifs replaced with a Gly-Ser linker) of about 4 fold. On ENAH EVH1 domain [2], the ITC binding model entry was “fit well to a 1:1 binding model” and the “ITC thermodynamic driving force of binding” value is recorded as “enthalpically driven”.
In the case of “ILSGLPAPDFIDYPERQECNCRPQESPYVSGMKTCH [TRIM1, CXC-motif peptide from E3 ubiquitin ligase TRIM1]”, the “binding to monomeric ENAH EVH1 domain by BLI, in words” value with ENAH EVH1 domain [1] is “did not saturate; also recorded: bound weakly and reversibly”.
Turning to “ADRSPFLPPPPPVTDCSQGSPLPHSPVFPPPPPEAL-OH [NHSL1]”, on ENAH EVH1 domain [2], the ITC binding model result is “fit well to a 1:1 binding model” and the “ITC thermodynamic driving force of binding” value is reported as “enthalpically driven”.
For the compound “PPAPEEQDLSMADFPPPEEAFFSVASPEPAGPSGSP [KIAAA1522]”, the “binding to monomeric ENAH EVH1 domain by BLI, in words” value on ENAH EVH1 domain [1] was “mid-micromolar affinity”.

Broadly, the Kd is the equilibrium constant for the complex coming apart. Read a low Kd as tighter binding.
